Results on 16 compounds are retold here after patent US8063099B2, “Trans-3-aza-bicyclo[3.1.0]hexane derivatives” (Actelion Pharmaceuticals Ltd., priority 2007, dated 2011).

One experiment concerns the target T1, human orexin-1 receptor (Homo sapiens, UniProt O43613).
T1 construct: expressed in transfected cells; host or cells: Chinese hamster ovary (CHO) cells, G418 selection
T1 sequence (O43613 1-425): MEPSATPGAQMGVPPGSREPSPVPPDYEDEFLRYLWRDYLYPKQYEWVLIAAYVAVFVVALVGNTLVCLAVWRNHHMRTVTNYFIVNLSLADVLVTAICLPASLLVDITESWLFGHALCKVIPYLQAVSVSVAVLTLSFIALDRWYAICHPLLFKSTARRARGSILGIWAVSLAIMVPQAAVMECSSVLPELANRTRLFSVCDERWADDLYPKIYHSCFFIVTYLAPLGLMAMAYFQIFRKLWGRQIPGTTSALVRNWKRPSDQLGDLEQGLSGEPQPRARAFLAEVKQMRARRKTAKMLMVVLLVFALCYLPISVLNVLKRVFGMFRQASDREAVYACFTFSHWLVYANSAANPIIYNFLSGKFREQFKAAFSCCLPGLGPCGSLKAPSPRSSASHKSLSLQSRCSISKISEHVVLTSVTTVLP
Put plainly: Intracellular calcium measurements (FLIPR), orexin receptor antagonistic activity. The class given is cell-based. As to conditions: CHO cells expressing human orexin-1 receptor, 3 nM orexin-A, read-out: OX1 IC50. The procedure:
(§1) The orexin receptor antagonistic activity of the compounds of formula (I) is determined in accordance with one of the following experimental methods.
(§2) Intracellular Calcium Measurements:
(§3) Chinese hamster ovary (CHO) cells expressing the human orexin-1 receptor and the human orexin-2 receptor, respectively, are grown in culture medium (Ham F-12 with L-Glutamine) containing 300 μg/ml G418, 100 U/ml penicillin, 100 μg/ml streptomycin and 10% heat inactivated fetal calf serum (FCS). The cells are seeded at 20'000 cells/well into 384-well black clear bottom sterile plates (Greiner). The seeded plates are incubated overnight at 37° C. in 5% CO2.
(§4) Human orexin-A as an agonist is prepared as 1 mM stock solution in MeOH:water (1:1), diluted in HBSS containing 0.1% bovine serum albumin (BSA), NaHCO3:0.375 g/l and 20 mM HEPES for use in the assay at a final concentration of 3 nM.
(§5) Antagonists are prepared as 10 mM stock solution in DMSO, then diluted in 384-well plates, first in DMSO, then in HBSS containing 0.1% bovine serum albumin (BSA), NaHCO3: 0.375 g/l and 20 mM HEPES.
(§6) On the day of the assay, 50 μl of staining buffer (HBSS containing 1% FCS, 20 mM HEPES, NaHCO3: 0.375 g/l, 5 mM probenecid (Sigma) and 3 μM of the fluorescent calcium indicator fluo-4 AM (1 mM stock solution in DMSO, containing 10% pluronic) is added to each well.
(§7) The 384-well cell-plates are incubated for 50 min at 37° C. in 5% CO2 followed by equilibration at RT for 30-120 min before measurement.
(§8) Within the Fluorescent Imaging Plate Reader (FLIPR2 or FLIPR Tetra, Molecular Devices), antagonists are added to the plate in a volume of 10 μl/well, incubated for 10 min and finally 10 μl/well of agonist is added. Fluorescence is measured for each well at 1 second intervals, and the height of each fluorescence peak is compared to the height of the fluorescence peak induced by 3 nM orexin-A with vehicle in place of antagonist. For each antagonist, the IC50 value (the concentration of compound needed to inhibit 50% of the agonistic response) is determined. With the FLIPR Tetra, non-optimized and optimized conditions were used. Optimized conditions were achieved by adjustment of pipetting speed and cell splitting regime. The calculated IC50 values of the compounds may fluctuate depending on the daily cellular assay performance. Fluctuations of this kind are known to those skilled in the art.

For a further experiment, the target named is T2, human orexin-2 receptor (Homo sapiens, UniProt O43614).
T2 construct: expressed in transfected cells; host or cells: Chinese hamster ovary (CHO) cells, G418 selection
T2 sequence (O43614 1-444): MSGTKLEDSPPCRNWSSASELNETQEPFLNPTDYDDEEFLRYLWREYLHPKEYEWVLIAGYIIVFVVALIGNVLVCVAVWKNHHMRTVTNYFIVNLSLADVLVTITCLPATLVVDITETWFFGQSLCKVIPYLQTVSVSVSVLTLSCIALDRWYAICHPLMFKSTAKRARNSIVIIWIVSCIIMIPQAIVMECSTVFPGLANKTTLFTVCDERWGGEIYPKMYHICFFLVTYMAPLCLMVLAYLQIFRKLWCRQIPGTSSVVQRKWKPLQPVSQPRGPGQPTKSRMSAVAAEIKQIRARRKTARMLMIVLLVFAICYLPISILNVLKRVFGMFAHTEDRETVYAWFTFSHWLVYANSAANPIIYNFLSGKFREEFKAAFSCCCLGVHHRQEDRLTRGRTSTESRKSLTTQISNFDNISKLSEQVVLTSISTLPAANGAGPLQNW
The experiment is described as above. The note with it: CHO cells expressing human orexin-2 receptor, 3 nM orexin-A, read-out: OX2 IC50. Type of experiment: cell-based. How it is done: as §1, §2, §3, §4, §5, §6, §7, §8

[1] abbreviates: FLIPR Tetra, optimized conditions.
Where [2] appears, read: FLIPR Tetra, non-optimized conditions.

Like-named read-outs stand apart in the source and are kept apart here. Some results are limits rather than exact numbers.

Consider `Cc1ncc(C(=O)N2C[C@@H]3C[C@@H]3[C@H]2CNC(=O)c2c(C)nc3sccn23)c(-c2ccccc2)n1` [Example 23, 6-Methyl-imidazo[2,1-b]thiazole-5-carboxylic Acid[(1S,2S,5R)-3-(2-methyl-4-phenyl-pyrimidine-5-carbonyl)-3-aza-bicyclo[3.1.0]hex-2-ylmethyl]-amide], for which the IC50 was found to be 35 nM at human orexin-1 receptor (FLIPR2) and 338 nM on human orexin-2 receptor (FLIPR2).
For `Cc1nc(-c2cccc(F)c2)c(C(=O)N2C[C@@H]3C[C@@H]3[C@H]2CNC(=O)c2c(C)nc3sccn23)s1` [Example 37, 6-Methyl-imidazo[2,1-b]thiazole-5-carboxylic acid{(1S,2S,5R)-3-[4-(3-fluoro-phenyl)-2-methyl-thiazole-5-carbonyl]-3-aza-bicyclo[3.1.0]hex-2-ylmethyl}-amide], the results for the half-inhibitory concentration (IC50) at human orexin-1 receptor (FLIPR2) and at human orexin-2 receptor (FLIPR2) were 85 nM and 35 nM, respectively.
Take `Cc1nc(C(=O)N2C[C@@H]3C[C@@H]3[C@H]2CNC(=O)c2c(C)nc3sccn23)c(-c2ccccc2C)s1` [Example 11, 6-Methyl-imidazo[2,1-b]thiazole-5-carboxylic acid[(1S,2S,5R)-3-(2-methyl-5-o-tolyl-thiazole-4-carbonyl)-3-aza-bicyclo[3.1.0]hex-2-ylmethyl]-amide]: the IC50 was found to be 14 nM on human orexin-1 receptor (FLIPR2) and 66 nM at human orexin-2 receptor (FLIPR2).
With `Cc1cccc(-c2sc(C)nc2C(=O)N2C[C@@H]3C[C@@H]3[C@H]2CNC(=O)c2ccn3ccsc23)c1` [Example 260, Pyrrolo[2,1-b]thiazole-7-carboxylic acid [(1S,2S,5R)-3-(2-methyl-5-m-tolyl-thiazole-4-carbonyl)-3-aza-bicyclo[3.1.0]hex-2-ylmethyl]-amide], the IC50 at human orexin-1 receptor (setting [1]) came out at 16 nM; on human orexin-2 receptor (setting [1]), 31 nM.
In the case of `Cc1nc(C(=O)N2C[C@@H]3C[C@@H]3[C@H]2CNc2ncc(Br)cn2)c(-c2ccc(C)c(F)c2)s1` [Example 252, {(1S,2S,5R)-2-[(5-Bromo-pyrimidin-2-ylamino)-methyl]-3-aza-bicyclo[3.1.0]hex-3-yl}-[5-(3-fluoro-4-methyl-phenyl)-2-methyl-thiazol-4-yl]-methanone], the IC50 on human orexin-1 receptor (setting [2]) turned out to be 79 nM; on human orexin-2 receptor (setting [2]), 350 nM.
For `CCn1nc(C)cc1C(=O)NC[C@@H]1[C@H]2C[C@H]2CN1C(=O)c1nc(C2CC2)sc1-c1cccc(C)c1` [Example 237, 2-Ethyl-5-methyl-2H-pyrazole-3-carboxylic acid [(1S,2S,5R)-3-(2-cyclopropyl-5-m-tolyl-thiazole-4-carbonyl)-3-aza-bicyclo[3.1.0]hex-2-ylmethyl]-amide], the IC50 stood at 29 nM on human orexin-1 receptor (setting [1]) and 38 nM on human orexin-2 receptor (setting [1]).
As for `O=C(NC[C@@H]1[C@H]2C[C@H]2CN1C(=O)c1ccccc1-c1ccccc1)c1cccc2occc12` [Example 2, Benzofuran-4-carboxylic acid[(1S,2S,5R)-3-(biphenyl-2-carbonyl)-3-aza-bicyclo[3.1.0]hex-2-ylmethyl]-amide], the IC50 was 34 nM on human orexin-1 receptor (FLIPR2) and 102 nM at human orexin-2 receptor (FLIPR2).
`Cc1ccc(-c2sccc2C(=O)N2C[C@@H]3C[C@@H]3[C@H]2CNC(=O)c2cccc3c2NCCO3)cc1` [Example 266, 3,4-Dihydro-2H-benzo[1,4]oxazine-5-carboxylic acid [(1S,2S,5R)-3-(2-p-tolyl-thiophene-3-carbonyl)-3-aza-bicyclo[3.1.0]hex-2-ylmethyl]-amide]: the IC50 came out at 65 nM at human orexin-1 receptor (setting [1]) and 19 nM on human orexin-2 receptor (setting [1]).
As for `N#Cc1ccc(-c2sc(C3CC3)nc2C(=O)N2C[C@@H]3C[C@@H]3[C@H]2CNC(=O)c2cccc(Cl)c2)cc1` [Example 186, 3-Chloro-N-{(1S,2S,5R)-3-[5-(4-cyano-phenyl)-2-cyclopropyl-thiazole-4-carbonyl]-3-aza-bicyclo[3.1.0]hex-2-ylmethyl}-benzamide], the values for the IC50 on human orexin-1 receptor (setting [2]) and on human orexin-2 receptor (setting [2]) were 3260 nM and 296 nM, respectively.
Take `Cc1cccc(-c2sc(C)nc2C(=O)N2C[C@@H]3C[C@@H]3[C@H]2CNC(=O)c2cccc(C(F)(F)F)c2)c1` [Example 45, N-[(1S,2S,5R)-3-(2-Methyl-5-m-tolyl-thiazole-4-carbonyl)-3-aza-bicyclo[3.1.0]hex-2-ylmethyl]-3-trifluoromethyl-benzamide]: the IC50 at human orexin-1 receptor (FLIPR2) was 110 nM; on human orexin-2 receptor (FLIPR2) it was 61 nM.
On to `CCn1nc(C)cc1C(=O)NC[C@@H]1[C@H]2C[C@H]2CN1C(=O)c1nc(C)sc1-c1cccc(Cl)c1` [Example 80, 2-Ethyl-5-methyl-2H-pyrazole-3-carboxylic Acid{(1S,2S,5R)-3-[5-(3-chloro-phenyl)-2-methyl-thiazole-4-carbonyl]-3-aza-bicyclo[3.1.0]hex-2-ylmethyl}-amide], for which the IC50 on human orexin-1 receptor (FLIPR2) turned out to be 29 nM; on human orexin-2 receptor (FLIPR2), 10 nM.
For the compound `Cc1nc2sccn2c1C(=O)NC[C@@H]1[C@H]2C[C@H]2CN1C(=O)c1ccccc1-c1csc(N)n1` [Example 24, 6-Methyl-imidazo[2,1-b]thiazole-5-carboxylic acid{(1S,2S,5R)-3-[2-(2-amino-thiazol-4-yl)-benzoyl]-3-aza-bicyclo[3.1.0]hex-2-ylmethyl}-amide], the IC50 was 102 nM at human orexin-1 receptor (FLIPR2) and 647 nM on human orexin-2 receptor (FLIPR2).
Regarding `Cc1ccc(-c2sccc2C(=O)N2C[C@@H]3C[C@@H]3[C@H]2CNC(=O)c2cccc3nsnc23)cc1` [Example 274, Benzo[2,1,3]thiadiazole-4-carboxylic acid [(1S,2S,5R)-3-(2-p-tolyl-thiophene-3-carbonyl)-3-aza-bicyclo[3.1.0]hex-2-ylmethyl]-amide], the IC50 at human orexin-1 receptor (setting [1]) is 58 nM; at human orexin-2 receptor (setting [1]), 55 nM.
For `Cc1nc2sccn2c1C(=O)NC[C@@H]1[C@H]2C[C@H]2CN1C(=O)c1ccccc1-c1cccs1` [Example 32, 6-Methyl-imidazo[2,1-b]thiazole-5-carboxylic acid[(1S,2S,5R)-3-(2-thiophen-2-yl-benzoyl)-3-aza-bicyclo[3.1.0]hex-2-ylmethyl]-amide], the IC50 at human orexin-1 receptor (FLIPR2) was determined as 15 nM; on human orexin-2 receptor (FLIPR2), 55 nM.
Regarding `Cc1cccc(-c2sc(C)nc2C(=O)N2C[C@@H]3C[C@@H]3[C@H]2CNC(=O)c2cccc3c2OCC(=O)N3)c1` [Example 169, 3-Oxo-3,4-dihydro-2H-benzo[1,4]oxazine-8-carboxylic Acid[(1S,2S,5R)-3-(2-methyl-5-m-tolyl-thiazole-4-carbonyl)-3-aza-bicyclo[3.1.0]hex-2-ylmethyl]-amide], the IC50 on human orexin-1 receptor (FLIPR2) is > 10000 nM; at human orexin-2 receptor (FLIPR2), 61 nM.
For the compound `Cc1nc2sccn2c1C(=O)NC[C@@H]1[C@H]2C[C@H]2CN1C(=O)c1ccccc1C1CCCCC1` [Example 31, 6-Methyl-imidazo[2,1-b]thiazole-5-carboxylic acid[(1S,2S,5R)-3-(2-cyclohexyl-benzoyl)-3-aza-bicyclo[3.1.0]hex-2-ylmethyl]-amide], the IC50 on human orexin-1 receptor (FLIPR2) stood at 960 nM; on human orexin-2 receptor (FLIPR2), 167 nM.
